{"source": "paper PMC7940609", "about": "“Hyperproduction of 3-hydroxypropionate by Halomonas bluephagenesis” (Nature Communications, 2021)", "molecules": {"B1": {"name": "AldDHb (Halomonas sp. TD01) (protein)", "chain": "MIYANPGDAGSVVSFEKRFGNYIGGEFVPPVNGQYFDNISPVNGQVFCEIPRSSAEDIEKALDAAHKAAPAWGKTSVQERSNILLKIADRLEQNLEMLAVAETWDNGKAVRETLNADIPLAVDHFRYFAGCLRSQEGTAADIDANTVAYHFHEPLGVVGQIIPWNFPILMAAWKLGPALAAGNCVILKPAEQTPASILKVMEVIGDLLPPGVLNVVNGFGAEAGQALATSKRIAKIAFTGSTPVGSHILKCAAENIIPSTVELGGKSPNIYFADIMNAEPTFIDKAVEGLVLAFFNQGEVCTCPSRALIQESMYDEFMAKVVERTKTIKRGNPLDTDVQVGAQASQEQFDKIMSYMDIARDEGAEFLAGGDKESLDDSINGGYYIQPTLLKGNNKMRVFQEEIFGPVVAVTTFKDEEEALAIANDTEFGLGAGVWSRDINVAFRMGRGIQAGRVWTNCYHQYPAHAAFGGYKKSGVGRETHKVALEHYQQTKNLLVSYDINPLGFF", "notes": "506 residues, C-terminal His-tag (plasmid p91), expressed in and purified from H. bluephagenesis TDΔdddA"}}, "key": {"[1]": {"target": "T1, DhaTPp (Pseudomonas putida, UniProt Q88J46)", "T1 construct": "gene dhaT; C-terminal His-tag (plasmid p92), expressed in and purified from H. bluephagenesis TDΔdddA", "T1 sequence (Q88J46 1-394)": "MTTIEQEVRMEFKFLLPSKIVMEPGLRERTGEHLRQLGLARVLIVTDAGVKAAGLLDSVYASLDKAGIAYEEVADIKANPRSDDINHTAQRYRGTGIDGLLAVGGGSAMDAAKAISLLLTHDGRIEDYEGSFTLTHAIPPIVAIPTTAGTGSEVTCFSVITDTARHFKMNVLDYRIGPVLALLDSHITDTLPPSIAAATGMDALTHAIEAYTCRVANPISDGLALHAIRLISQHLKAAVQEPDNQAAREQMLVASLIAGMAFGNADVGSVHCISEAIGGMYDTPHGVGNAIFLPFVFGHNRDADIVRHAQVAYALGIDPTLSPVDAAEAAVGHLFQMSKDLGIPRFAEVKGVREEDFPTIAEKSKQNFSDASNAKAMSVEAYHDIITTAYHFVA", "test": "specific activity, NADH formation", "assay_type": "biochemical", "conditions": "150 mM 1,3-propanediol, 2 mM NAD+, 100 mM potassium carbonate pH 9.0, 30 mM ammonium sulfate, 37 °C"}, "[2]": {"target": "T2, DhaTKp (Klebsiella pneumoniae, UniProt Q7WRJ3)", "T2 construct": "gene dhaT; C-terminal His-tag (plasmid p95), expressed in and purified from H. bluephagenesis TDΔdddA", "T2 sequence (Q7WRJ3 1-387)": "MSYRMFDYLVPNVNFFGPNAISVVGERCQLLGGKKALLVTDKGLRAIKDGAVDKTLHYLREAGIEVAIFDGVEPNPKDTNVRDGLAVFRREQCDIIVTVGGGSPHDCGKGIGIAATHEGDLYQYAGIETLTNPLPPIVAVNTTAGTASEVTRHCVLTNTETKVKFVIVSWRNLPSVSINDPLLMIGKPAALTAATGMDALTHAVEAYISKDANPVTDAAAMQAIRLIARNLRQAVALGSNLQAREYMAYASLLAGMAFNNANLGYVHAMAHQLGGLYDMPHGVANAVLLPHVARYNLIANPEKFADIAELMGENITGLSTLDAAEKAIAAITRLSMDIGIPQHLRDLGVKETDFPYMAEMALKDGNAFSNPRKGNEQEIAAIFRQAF", "test": "specific activity, NADH formation", "assay_type": "biochemical", "conditions": "150 mM 1,3-propanediol, 2 mM NAD+, 100 mM potassium carbonate pH 9.0, 30 mM ammonium sulfate, 37 °C"}, "[3]": {"target": "T3, AldDPp (Pseudomonas putida, UniProt Q88QE9)", "T3 construct": "gene aldB-I; N-terminal His-tag (plasmid p98), expressed in and purified from H. bluephagenesis TDΔdddA", "T3 sequence (Q88QE9 1-506)": "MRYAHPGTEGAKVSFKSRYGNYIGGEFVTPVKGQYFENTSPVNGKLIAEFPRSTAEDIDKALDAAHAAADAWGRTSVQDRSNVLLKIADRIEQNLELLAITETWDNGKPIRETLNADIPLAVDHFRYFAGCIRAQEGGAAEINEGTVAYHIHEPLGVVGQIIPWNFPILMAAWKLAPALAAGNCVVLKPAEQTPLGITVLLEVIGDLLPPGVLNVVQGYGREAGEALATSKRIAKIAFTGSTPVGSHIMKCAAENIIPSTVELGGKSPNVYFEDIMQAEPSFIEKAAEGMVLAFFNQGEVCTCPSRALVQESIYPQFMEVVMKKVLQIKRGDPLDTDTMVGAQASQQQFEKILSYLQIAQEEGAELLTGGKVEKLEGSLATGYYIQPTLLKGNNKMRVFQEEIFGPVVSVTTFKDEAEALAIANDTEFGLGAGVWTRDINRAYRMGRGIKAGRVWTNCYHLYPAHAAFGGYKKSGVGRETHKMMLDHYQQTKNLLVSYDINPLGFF", "test": "specific activity, NADH formation", "assay_type": "biochemical", "conditions": "2.0 mM 3HPA, 2.0 mM NAD+, 100 mM potassium phosphate pH 8.0, 1 mM DTT, 37 °C"}, "[4]": {"target": "T4, AldH (Escherichia coli, UniProt P23883)", "T4 construct": "gene puuC; N-terminal His-tag (plasmid p99), expressed in and purified from H. bluephagenesis TDΔdddA", "T4 sequence (P23883 1-495)": "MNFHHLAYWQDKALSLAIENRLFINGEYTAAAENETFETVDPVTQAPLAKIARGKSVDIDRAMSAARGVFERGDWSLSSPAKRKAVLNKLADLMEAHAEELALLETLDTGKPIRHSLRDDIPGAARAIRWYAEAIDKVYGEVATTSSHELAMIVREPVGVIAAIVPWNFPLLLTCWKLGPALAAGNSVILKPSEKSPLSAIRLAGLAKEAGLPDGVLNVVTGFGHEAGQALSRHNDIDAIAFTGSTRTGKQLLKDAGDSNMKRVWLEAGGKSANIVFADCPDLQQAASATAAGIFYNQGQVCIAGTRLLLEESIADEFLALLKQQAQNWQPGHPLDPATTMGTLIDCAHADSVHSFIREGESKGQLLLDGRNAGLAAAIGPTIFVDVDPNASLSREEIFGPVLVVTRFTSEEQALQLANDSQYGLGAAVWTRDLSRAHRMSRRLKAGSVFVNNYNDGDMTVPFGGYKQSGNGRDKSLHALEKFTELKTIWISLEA", "test": "specific activity, NADH formation", "assay_type": "biochemical", "conditions": "2.0 mM 3HPA, 2.0 mM NAD+, 100 mM potassium phosphate pH 8.0, 1 mM DTT, 37 °C"}, "[5]": {"target": "T5, PuuC (Klebsiella pneumoniae, UniProt A0A378BL98)", "T5 construct": "N-terminal His-tag (plasmid p100), expressed in and purified from H. bluephagenesis TDΔdddA", "T5 sequence (A0A378BL98 1-495)": "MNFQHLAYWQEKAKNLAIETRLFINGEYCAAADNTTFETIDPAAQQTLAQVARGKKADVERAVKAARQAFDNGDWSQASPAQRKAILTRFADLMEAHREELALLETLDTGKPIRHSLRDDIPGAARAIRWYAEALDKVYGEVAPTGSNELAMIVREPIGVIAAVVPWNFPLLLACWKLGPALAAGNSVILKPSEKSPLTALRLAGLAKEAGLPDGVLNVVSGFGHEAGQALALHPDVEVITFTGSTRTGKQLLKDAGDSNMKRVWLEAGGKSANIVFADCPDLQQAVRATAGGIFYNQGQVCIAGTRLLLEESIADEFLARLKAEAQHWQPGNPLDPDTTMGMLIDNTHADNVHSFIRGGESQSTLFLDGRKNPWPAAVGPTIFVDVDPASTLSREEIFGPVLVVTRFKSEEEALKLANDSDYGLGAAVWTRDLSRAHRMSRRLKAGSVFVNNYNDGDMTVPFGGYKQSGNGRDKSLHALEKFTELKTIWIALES", "test": "specific activity, NADH formation", "assay_type": "biochemical", "conditions": "2.0 mM 3HPA, 2.0 mM NAD+, 100 mM potassium phosphate pH 8.0, 1 mM DTT, 37 °C"}, "[6]": {"substrate": "O=CCCO", "test": "purified protein", "assay_type": "biochemical, Halomonas sp. TD01", "conditions": "2 mM NAD+, 50 mM potassium phosphate pH 8.0, 1.0 mM DTT, 37 °C"}}}
{"molecule": "OCCCO", "note": "[1,3-propanediol]", "values": [{"measurement": "specific activity, NADH formation", "setting": "[1]", "value": "higher than the alcohol dehydrogenase of P. putida DhaTPp and K. pneumoniae DhaTKp"}, {"measurement": "specific activity, NADH formation", "setting": "[2]", "value": "higher than the alcohol dehydrogenase of P. putida DhaTPp and K. pneumoniae DhaTKp"}]}
{"molecule": "O=CCCO", "note": "[3HPA]", "values": [{"measurement": "specific activity, NADH formation", "setting": "[3]", "value": "four different aldehyde dehydrogenases (AldDHb, AldDPp, AldH, and PuuC) were analyzed"}, {"measurement": "specific activity, NADH formation", "setting": "[4]", "value": "four different aldehyde dehydrogenases (AldDHb, AldDPp, AldH, and PuuC) were analyzed"}, {"measurement": "specific activity, NADH formation", "setting": "[5]", "value": "four different aldehyde dehydrogenases (AldDHb, AldDPp, AldH, and PuuC) were analyzed"}]}
{"molecule": "B1", "values": [{"measurement": "Km", "setting": "[6]", "value": "50 ± 2", "unit": "µM"}, {"measurement": "kcat", "setting": "[6]", "value": "3.38 ± 0.09", "unit": "s⁻¹"}, {"measurement": "kcat/Km", "setting": "[6]", "value": "67400 ± 797", "unit": "M⁻¹ s⁻¹"}]}
